From paper PMC6269819, “Evaluation of the Biological Activity of Naturally Occurring 5,8-Dihydroxycoumarin” (Molecules, 2013)
Marks after values point to notes of the source that are not given here.

How the values were obtained:
male rat hepatocytes = settings: cited from earlier work
human lymphocytes = test: Chromosome aberrations in human lymphocyte cultures in vitro; format: cell-based; settings: female, human, 24 h, 0.02 µL/mL
Description: Blood samples were taken from two healthy female volunteers (donor A) and (donor B). Whole peripheral blood was grown in HEPES-buffered RPMI 1640 medium supplemented with 12% heat-inactivated newborn calf serum, 7.8 μg/mL phytohemagglutinin P, 50 μg/mL gentamycin, 10 μg/mL 5-bromo-2'-deoxyuridine. All reagents used for the cell culture were purchased from Sigma-Aldrich Chemical Co. (St. Louis, MO, USA). Cell cultures were incubated at 37 °C for 72 h. Treatment with test compounds was carried out 48 h after culture initiation and lasted for the period of 24 h. Dose range of 5,8-DHC (10 to 40 µg/mL) was based on pilot experiments (data not shown). As whole blood cultures display many properties common with the liver microsomal cytochrome P450 system, no external metabolising enzymes were added. 5,8-DHC was dissolved in ethanol and then diluted with RPMI 1640 medium to the desired concentration. Ethanol in a final concentration of 7.5µL/mL was used as a solvent control. […] Working solutions were made just before treatment. Two parallel cultures were used for each concentration of the compound tested. Two cultures were left untreated and served as a blank control. Methyl methanesulfonate (MMS) in a final concentration of 0.02 μL/mL was used as a positive control. The cultures were exposed to colchicine at a final concentration of 0.6 μg/mL for the last 3 h of incubation. The cells were harvested, hypotonically swollen in 0.075 M KCl and fixed in methanol: acetic acid (3:1). Air-dried slides were differentially stained by fluorescence plus Giemsa technique as has been described previously. Briefly, the slides were stained for 10 min. with 10 μg/mL of Hoechst 33258 dye (dissolved in 0.07 M Soerensen’s buffer, pH 6.8). Then the slides were rinsed, mounted with citrate buffer (pH 8.5), covered with cover slips and exposed to UV light (400 W mercury lamp at a distance of 15 cm) for 6–7 min. Slides were then rinsed and stained for 3–4 min. with 5% Giemsa. Cytogenetic analysis was performed on coded slides. No less than 100 first-mitotic division metaphases per culture were analysed for CAs, and no less than 50 second-division metaphases for SCEs.

[1] = tested on: Drosophila melanogaster wing cells; test: Somatic mutation and recombination test (SMART), wing spot test; format: in vivo; settings: positive control, 50 μM MMS
Description: The basic procedures for the D. melanogaster somatic mutation and recombination test (SMART) were performed according to Graf and co-workers. Two D. melanogaster strains (kindly provided by Dr. H. Frei, Zurich, Switzerland) were used in the present study: virgin females from the strain ORR/ORR; flr^3/ In (3LR) TM3, ri p^p sep l(3)89Aa bx^34e e Bd^S were mated with mwh/mwh males. The ORR strain has chromosomes 1 and 2 from a DDT-resistant Oregon line, which are characterized by constitutively over-expressed CYP450 genes. The CYP 450 enzymes play the main role in the bioactivation of xenobiotics, as well as natural products including phytochemicals. Thus, the use of this high-bioactivation strain of D. melanogaster facilitates the detection of promutagens of numerous classes of compounds. The markers mwh (multiple wing hairs) and flr^3 (misshapen, flare-like hairs) are recessive wing-hair mutations located on the third chromosome at 0.3 and 38.8 respectively.
Eggs from the crosses were collected over 10 h periods. Progeny were raised on the Instant Drosophila Medium (Sigma Chemical Co., St. Louis, MO, USA) at 25 °C. Two schedules of the larvae treatment were applied. Firstly, the crossed flies were permitted to lay eggs for 10 h in vials containing medium prepared with 5,8-DHC solution. Thus, the exposure duration was about 120 h (i.e., evolutionary period from fly egg till case-worm). According to the second schedule, the 72 ± 5 h-old larvae were exposed to 5,8-DHC by adding test solution to the surface of the medium and were fed on this medium for the rest of their development, during approximately 48 h. 5,8-DHC was dissolved in ethanol and then diluted with distilled water to the desired concentration, with the final ethanol concentration 5% v/v. The solutions were always prepared immediately before use. Solvent controls were included in all treatments. Methyl methanesulfonate was included in the assay as a positive control. Trans-heterozygous (mwh flr^+ / mwh^+ flr^3) flies were collected and stored in a 70% ethanol. The wings of adult flies were mounted on glass slides in Faure’s solution, coded and scored at 400× magnification (Nikon E200) for the presence of single (mwh or flr^3 phenotype) or twin (adjacent mwh and flr^3 clones) spots. The spots were recorded according to standard procedures. No less than 40 wings were analysed per each experimental point. Two repeated experiments were carried out.

[2] = tested on: Wistar rat bone marrow cells; settings: rats, single 30–40 mg/kg dose of CP; cited from earlier work
[3] = tested on: Wistar rat bone marrow cells; test: Micronucleus in vivo assay in rat bone marrow; settings: single i.p. 30 mg/kg b.w., sacrifice 24 h
Text: Male albino Wistar rats aged 8–10 weeks and having body weight of 200–220 g, were used in the present study. The animals were supplied by the Animal Facility of the Department of Immunology, State Research Institute Center for Innovative Medicine. Ethical approval was given by the Committee of the Lithuanian Animal Care and Use. Prior to the start of the study, the animals were acclimatized for 7 days. They were housed under conditions of constant temperature, humidity and a light/dark cycle of 12 h/12 h with free access to standard commercial pellet diet and drinking water. The animals were randomly distributed into 11 experimental groups of six rats each.
We used a mixture of dimethylsulfoxide (DMSO) and sunflower oil (1:2) as the vehicle for 5,8-DHC (5,8-DHC was dissolved in DMSO and adjusted to the desired dose with sunflower oil immediately before administration). For the acute treatment, the animals received single intraperitoneal (i.p.) injections of 10 or 20 mg/kg of 5,8-DHC in 1 mL volume per 100 g body weight (b.w.). The negative control group comprised animals, given a single i.p. injection of vehicle (1 mL/100 g b.w.) and the positive control group, given cyclophosphamide (CP, 30 mg/kg adjusted in 0.5 mL/100 g b.w. in sterile physiological saline). A commercial form of cyclophosphamide was used (‘Endoxan’, ASTA Medica AG, Frankfurt, Germany). Blank controls comprised untreated animals. For the repeated treatment, 5,8-DHC (10 or 20 mg/kg) or vehicle was administered via gavage (1 mL/100 g b.w.) once a day for 3 consecutive days. Animals were sacrificed 24 h or 48 h after the last dose administration. Colchicine was applied i.p. at a dose of 2 mg/kg b.w. in 1 mL volume 90 min before sacrifice. Both femurs were dissected from each animal and used to obtain bone marrow preparations for the analysis of chromosome aberrations and micronucleus.
The bone marrow MN assay was conducted according to the standard procedure. Ends of the femura were cut off and the bone marrow was washed out with 2 mL of heat-inactivated foetal calf serum (Biochrom AG, Berlin, Germany), mixed thoroughly to obtain a fine suspension and centrifuged for 5 min at 150 × g. The supernatant was discarded and the cell pellet was carefully re-suspended. At least two smears per animal were prepared and allowed to air dry prior to fixation with methanol. The slides were stained in May-Grünwald solution followed by Giemsa (both Merck), coded and scored blind by the same scorer under magnification of 1000× (Jenaval, Zeiss, Jena, Germany). Micronucleated polychromatic erythrocyte (MNPCE) frequencies were based on the observation of 2,000 immature polychromatic erythrocytes (PCEs). Bone marrow toxicity was monitored by a decrease of PCE to total erythrocytes (e.g., PCEs+NCEs, normochromatic erythrocytes). At least 1,000 bone marrow erythrocytes per animal were analysed.

[4] = tested on: Chinese hamster ovary (CHO) cells; settings: doses up to 333 μM; cited from earlier work

O=c1ccc2ccccc2o1 [coumarin, 1,2-benzopyrone]
induction of UDS (male rat hepatocytes; oral administration, doses up to 320 mg/kg bw): does not induce UDS | maximum tolerated dose (male rat hepatocytes; rat, in vivo, po): 320 mg/kg bw

COS(C)(=O)=O [MMS, Methyl methanesulfonate, reference compound]
CA per 100 cells (±S.E.M.) (human lymphocytes): 12.0 ± 3.2 ^b per 100 cells | large single spots [1]: 4.63 | small single spots [1]: 1.65 | total spots per wing [1]: 7.15 spots per wing | twin spots [1]: 0.88 | wings with spots [1]: 100%

O=P1(N(CCCl)CCCl)NCCCO1 (stereo not drawn) [CP, cyclophosphamide, reference compound]
frequency of abnormal metaphases [2]: 16–21% | MNPCE (%± S.E.M.) [3]: 1.67 ± 0.22 ^a % | PCE (%± S.E.M.) [3]: 34.8 ± 6.4%

O=c1ccc2ccc(O)cc2o1 [umbelliferone, 7-hydroxycoumarin]
increase in SCE or chromosome aberration [4]: no evidence of increase
